Tests used:
[1] = system: Kaposi's sarcoma and nontumorous oral mucosa tissues; experiment: microcalorimetric heat output of biopsy specimens; parameters: species or system human; conditions: biopsy specimens in 30 uM DNP
Source text: Laboratory studies: EKG, serum electrolytes, renal and liver function tests were normal. Hematocrit was 35.5%, WBC was 9,900 with 81% neutrophils, 4 bands, 11 lymphocytes and 4 monocytes. Platelets were 314,000/mm^3. Viral load was 400,000 copies/ml (Amplicor HIV Monitor test, Roche). A CD4^+ T cell count was quantified by flow cytometry at 250/mm^3. They were antibody positive for hepatitis C. […] Karnofsky score was greater than 70. Normal and tumor tissue biopsies, 3 to 6 mm in diameter, from the oral cavity and anus were obtained. The tissues were equally divided, weighed and placed in 4° C. Ringers lactate solution. Histologically confirmed normal and KS tissues were then subjected to microcalorimetric measurements in a thermal activity monitor (ThermoMetric, Jarfalla, Sweden). Recorded heat output (μW/min) was 8.2-8.5 times greater for the KS sarcoma lesions than nontumorous oral mucosa tissues. Repeat measurements with biopsies specimens in 30 uM DNP increased heat production in tumorous tissues 20.5 times more than nontumorous specimens.

Kaposi's sarcoma = experiment: DNP hyperthermia, Kaposi's sarcoma lesions (Example 2); format: in vivo, human
Protocol: Pretreatment protocol: all medications were stopped 2 weeks prior to treatment. The patient refused taking diazepam, placement of a Foley catheter and oxygen face mask. They dressed themself into a dry cold water immersion suit (Stearns, ISS-590I, Universal Adult) designed to prevent heat loss and modified for easy placement of physiologic monitors. Equipment for measurement of heart rate, temperature, carbon dioxide production and Kcal of heat produced were conducted as outlined in Example 1. An oral breathing tube was used to measure V02 from room air. Urine output was measured when the patient voluntarily urinated through a “Texas” catheter (superficial condom tightly fitted around the head of the penis with tubing connected to urine collection bag). The patient was informed that hyperthermia would be administered as tolerated by their stamina and monitored clinical parameters, not to exceed 5 hours, on a daily or every other day basis, for a total of 5 sessions.
Treatment procedure: Baseline reading for 5 minutes established an average V02 of 300 cc/min. An initial dose of 2 mg/kg of DNP was administered over a 2 minute period. V02 increased and stabilized at 15 minutes at 340-380 cc/min. An additional 2 mg/kg DNP infusion was given, the V02 increased and stabilized at 610-630 cc/min. […]

musculocutaneous flap = musculocutaneous flap skin survival after DNP; format: in vivo; conditions: after induction of heat shock proteins by DNP (FIG. 23)
Source text: This method of DNP induced preconditioning could be used to decrease intimal thickening and restenosis after angioplasty, improve ischemia/reperfusion injury in organ and tissue transplantation, and improve surgical outcome of procedures that require temporary or prolonged occlusion of arterial blood flow.

glioma = experiment: DNP enhanced PET-FDG scan, glioma (Example 7); format: in vivo, human; parameters: key to metabolic grade of FDG uptake, selected target / metabolic grade, hypermetabolic component in the tumor area / metabolic grade, remaining viable tumor: I: FDG uptake less than contralateral white matter; II: uptake between the levels in contralateral white and gray matter; III: FDG uptake equal to or greater than in contralateral gray matter
Source text: Pretreatment protocol: three days prior to DNP dosing and repeat PET-FDG scan, the patient's dosage of phenyloin was increased from 100-mg three times daily to 200-mg three times a day. The same positron emission tomogram, a CTI-Siemens 933/08-12 which provides a 6.75-mm adjacent slices and in-plane spatial resolution (full-width at half maximum) of ˜5 mm, was to be used. The highest level of non to DNP stimulated FDG uptake in the tumor area was to be compared and qualitatively graded by two radiologists. Independently, each investigator was to visually evaluate the positron emission tomogram and use the following metabolic grading scale: I, FDG uptake less than contralateral white matter; II, uptake between the levels in contralateral white and gray matter; III, FDG uptake equal to or greater than in contralateral gray matter.
Diagnostic—treatment protocol: the patient was given a 300 mg capsule of DNP (approximately 4 mg/kg body weight) three hours prior to undergoing a PET-FDG scan. Forty minutes prior to the emission scan they were intravenously injected with a bolus of FDG according to standard methodology. Immediately prior to the 20-minute emission scan the patients VO2 uptake was 40% above that at baseline. The patients DNP/VO2 flow chart is FIG. 24.

breast lesion = experiment: DNP enhanced infrared imaging, breast carcinoma (Example 8); format: in vivo, human
Protocol: Prediagnostic protocol: the patient was disrobed to the waist and sat with their hands interlocked over their head for a five minute equilibration period in a draft free, thermally controlled room—kept between 18° C. and 20° C. […] A baseline of 4 images consisting of an anterior, undersurface and 2 lateral views of each breast were generated by an integrated infrared imaging station consisting of a scanning mirror optical system containing a mercury-cadmium-telluride detector (Bales Scientific, CA). […] Images were stored on retrievable laser discs.
Diagnostic treatment protocol: after the above baseline studies were performed, the patient was given an initial intravenous dose of 1 mg/kg DNP and observed for a period of 20 minutes. An additional 2 mg/kg of DNP was then administered and 30 minutes thereafter, they were taken to the thermally controlled room for repeat DNP-enhanced infrared imaging. […] Repeat infrared images were then obtained under the exact protocol used for obtaining baseline studies.

[2] = DNP enhancement, one year after diagnosis and therapy

## O=[N+]([O-])c1ccc(O)c([N+](=O)[O-])c1 [DNP, 2,4-dinitrophenol]
[1]
  heat production in tumorous tissues versus nontumorous specimens: 20.5 times
Kaposi's sarcoma; 5th and last day of therapy
  anal tumor diminished in size: approximately 60%
Kaposi's sarcoma; 30 days post-treatment
  oral and anal KS lesions: complete regression of both oral and anal KS lesions
Musculocutaneous flap
  musculocutaneous flap skin survival: improved musculocutaneous flap skin survival
glioma; 300 mg oral DNP, none without DNP
  DNP enhanced PET-FDG scan finding: two areas of hypermetabolism
glioma; DNP enhanced PET-FDG scan
  metabolic grade of FDG uptake, selected target: III
glioma; [2]
  metabolic grade, hypermetabolic component in the tumor area: II
  metabolic grade, remaining viable tumor: I
Breast lesion; DNP enhanced infrared imaging
  bilateral global breast temperature increase: approximately 0.5 °C
  increase in temperature in the palpable right breast lesion: 2.5 °C
Breast lesion; lesion versus global breast increase of 0.5° C.
  increase in heat production above the DNP baseline increase: 5 fold

Reference: US7635722B1, “Chemical induced intracellular hyperthermia” (priority 1998, dated 2009)
